The values below are quoted from earlier work in paper PMC7032176 (Asian Journal of Pharmaceutical Sciences, 2018).

The conditions of data set [1]: at 25 °C.

Regarding `CC(C)(Sc1cc(C(C)(C)C)c(O)c(C(C)(C)C)c1)Sc1cc(C(C)(C)C)c(O)c(C(C)(C)C)c1` [Probucol], the oral bioavailability result is reported as “up to 6%”. The water solubility result in data set [1] is on record as “about 5 ng/ml”.
